In patent US20250034147A1, “MDM2 DEGRADERS AND USES THEREOF” (Kymera Therapeutics, Inc., priority 2021, published 2025):

biological target: T1, HiBiT-tagged MDM2 (Homo sapiens, UniProt Q00987); assay: MDM2 HiBit HEK293T degradation; format: cell-based; settings: HEK293T cells stably expressing C-terminally HiBiT-tagged MDM2; 4 h; read-out: MDM2 HiBit HEK293T degradation 4 h: Average external-Abs DC50
T1 construct: expressed in transfected cells
Experimental: HEK293T cells were grown overnight to 70-80% confluency in a 6-well plate in complete media (DMEM 10% FBS) in a 37° C. incubator with 5% CO2. Cells were transfected with 1 micrograms of C- or N-terminally HiBiT-tagged MDM2 constructs using Fugene 6 transfection reagent (Promega) as per manufacturer protocol. After overnight incubation at 37° C., growth media within the wells was replaced with selection media (DMEM+10% FBS+1 microgram/ml final concentration of Puromycin). Puromycin (selection antibiotic) concentrations required for complete cell kill were determined previously. Cells were monitored for the next 48h-96h to select for positively transfected cells. Surviving colonies were pooled and expanded in selection media. Expanded pools of HEK293T cells stably expressing C- and N-terminally HiBiT-tagged MDM2, were characterized using a MDM2 tool degrader and HaloPROTAC3 as positive control. HEK293T cells expressing C-terminally HiBiT-tagged MDM2 were subsequently used for assessment of degradation potencies for MDM2 degraders.
The letter codes for MDM2 degradation potency (DC50) include: A (<10 nM), B […], C (>100-1000 nM), and D (>1000 nM).

T1 sequence (Q00987 whole entry): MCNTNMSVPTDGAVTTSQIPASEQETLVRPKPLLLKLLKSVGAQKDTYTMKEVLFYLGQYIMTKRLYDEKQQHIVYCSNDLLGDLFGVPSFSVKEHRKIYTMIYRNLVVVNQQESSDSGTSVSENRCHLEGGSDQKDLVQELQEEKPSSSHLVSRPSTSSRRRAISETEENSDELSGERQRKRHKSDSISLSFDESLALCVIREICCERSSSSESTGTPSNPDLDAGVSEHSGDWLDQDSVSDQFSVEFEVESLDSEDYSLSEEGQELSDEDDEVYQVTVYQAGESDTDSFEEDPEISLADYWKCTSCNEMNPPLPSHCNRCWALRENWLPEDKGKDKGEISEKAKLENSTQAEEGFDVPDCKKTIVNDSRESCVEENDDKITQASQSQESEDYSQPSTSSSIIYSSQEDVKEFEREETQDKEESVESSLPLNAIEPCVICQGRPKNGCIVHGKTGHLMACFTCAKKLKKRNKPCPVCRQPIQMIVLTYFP

`C[C@H]1CN(C(=O)[C@H]2CC[C@H](NC(=O)[C@@H]3NC4(CCCCC4)[C@@]4(C(=O)Nc5cc(Cl)ccc54)[C@H]3c3cccc(Cl)c3F)CC2)CCN1CCc1ccc2c(c1)n(C)c(=O)n2C1CCC(=O)NC1=O` (stereo partly shown) [I-121] and `C[C@@H]1CN(C(=O)[C@H]2CC[C@H](NC(=O)[C@@H]3NC4(CCCCC4)[C@@]4(C(=O)Nc5cc(Cl)ccc54)[C@H]3c3cccc(Cl)c3F)CC2)CCN1CCc1ccc2c(c1)n(C)c(=O)n2C1CCC(=O)NC1=O` (stereo partly shown) [I-122] cannot be ordered by DC50: < 10 nM for the first, < 10 nM for the second.

`Cn1c(=O)n(C2CCC(=O)NC2=O)c2ccc(C3CC4(C3)CN(C[C@H]3CC[C@H](NC(=O)[C@@H]5NC6(CCCCC6)[C@@]6(C(=O)Nc7cc(Cl)ccc76)[C@H]5c5cccc(Cl)c5F)CC3)C4)cc21` (stereo partly shown) [I-123] and `Cn1c(=O)n(C2CCC(=O)NC2=O)c2ccc([C@H]3CC[C@H](CN4CCC(NC(=O)[C@@H]5NC6(CCCCC6)[C@@]6(C(=O)Nc7cc(Cl)ccc76)[C@H]5c5cccc(Cl)c5F)CC4)CC3)cc21` (stereo partly shown) [I-130] cannot be ordered by DC50: < 10 nM for the first, < 10 nM for the second.

`Cn1c(=O)n(C2CCC(=O)NC2=O)c2ccc(N3CCN(C(=O)CN4CCC(NC(=O)[C@@H]5NC6(CCCCC6)[C@@]6(C(=O)Nc7cc(Cl)ccc76)[C@H]5c5cccc(Cl)c5F)CC4)CC3)cc21` (stereo partly shown) [I-125] and `Cn1c(=O)n(C2CCC(=O)NC2=O)c2ccc(N3CCC(N4CCC(NC(=O)[C@@H]5NC6(CCCCC6)[C@@]6(C(=O)Nc7cc(Cl)ccc76)[C@H]5c5cccc(Cl)c5F)CC4)CC3)cc21` (stereo partly shown) [I-139] cannot be ordered by DC50: < 10 nM for the first, < 10 nM for the second.

First: CN(C(=O)[C@H]1CC[C@H](NC(=O)[C@@H]2NC3(CCCCC3)[C@@]3(C(=O)Nc4cc(Cl)ccc43)[C@H]2c2cccc(Cl)c2F)CC1)C1CCN(Cc2ccc3c(c2)n(C)c(=O)n3C2CCC(=O)NC2=O)CC1 (stereo partly shown) [I-127]
Second: Cn1c(=O)n(C2CCC(=O)NC2=O)c2ccc(CN3CCN(C(=O)[C@H]4CC[C@H](NC(=O)[C@@H]5NC6(CCCCC6)[C@@]6(C(=O)Nc7cc(Cl)ccc76)[C@H]5c5cccc(Cl)c5F)CC4)C(C(=O)O)C3)cc21 (stereo partly shown) [I-135]
The DC50 of the first is lower: < 10 nM for the first, 100 to 1000 nM for the second.

`Cn1c(=O)n(C2CCC(=O)NC2=O)c2ccc(CC3(C(=O)O)CCN(C(=O)[C@H]4CC[C@H](NC(=O)[C@@H]5NC6(CCCCC6)[C@@]6(C(=O)Nc7cc(Cl)ccc76)[C@H]5c5cccc(Cl)c5F)CC4)CC3)cc21` (stereo partly shown) [I-131] and `Cn1c(=O)n(C2CCC(=O)NC2=O)c2ccc(CCCC3(CC(=O)O)CCN(C(=O)[C@H]4CC[C@H](NC(=O)[C@@H]5NC6(CCCCC6)[C@@]6(C(=O)Nc7cc(Cl)ccc76)[C@H]5c5cccc(Cl)c5F)CC4)CC3)cc21` (stereo partly shown) [I-132] fall in the same range of DC50: 100 to 1000 nM for the first, 100 to 1000 nM for the second.

`Cn1c(=O)n(C2CCC(=O)NC2=O)c2ccc(CCCN3CCN(C(=O)[C@@H]4CC[C@@H](NC(=O)[C@@H]5NC6(CCCCC6)[C@@]6(C(=O)Nc7cc(Cl)ccc76)[C@H]5c5cccc(Cl)c5F)CO4)CC3)cc21` (stereo partly shown) [I-133] and `Cn1c(=O)n(C2CCC(=O)NC2=O)c2ccc(CCC(=O)N3CCN(C[C@H]4CC[C@H](NC(=O)[C@@H]5NC6(CCCCC6)[C@@]6(C(=O)Nc7cc(Cl)ccc76)[C@H]5c5cccc(Cl)c5F)CC4)CC3)cc21` (stereo partly shown) [I-134] cannot be ordered by DC50: < 10 nM for the first, < 10 nM for the second.

First: Cn1c(=O)n(C2CCC(=O)NC2=O)c2ccc(CCCO[C@@H]3C[C@@H](C(=O)O)N(C(=O)[C@H]4CC[C@H](NC(=O)[C@@H]5NC6(CCCCC6)[C@@]6(C(=O)Nc7cc(Cl)ccc76)[C@H]5c5cccc(Cl)c5F)CC4)C3)cc21 (stereo partly shown) [I-136]
Second: Cn1c(=O)n(C2CCC(=O)NC2=O)c2ccc(CCCO[C@@H]3C[C@H](C(=O)O)N(C(=O)[C@H]4CC[C@H](NC(=O)[C@@H]5NC6(CCCCC6)[C@@]6(C(=O)Nc7cc(Cl)ccc76)[C@H]5c5cccc(Cl)c5F)CC4)C3)cc21 (stereo partly shown) [I-141]
The DC50 of the first is lower: 10 to 100 nM for the first, 100 to 1000 nM for the second.

`Cn1c(=O)n(C2CCC(=O)NC2=O)c2ccc([C@H]3CC[C@H](N4CCC(NC(=O)[C@@H]5NC6(CCCCC6)[C@@]6(C(=O)Nc7cc(Cl)ccc76)[C@H]5c5cccc(Cl)c5F)CC4)CC3)cc21` (stereo partly shown) [I-138] and `Cn1c(=O)n(C2CCC(=O)NC2=O)c2ccc(C3CCN([C@H]4CC[C@H](N5CCC(NC(=O)[C@@H]6NC7(CCCCC7)[C@@]7(C(=O)Nc8cc(Cl)ccc87)[C@H]6c6cccc(Cl)c6F)CC5)CC4)CC3)cc21` (stereo partly shown) [I-155] cannot be ordered by DC50: < 10 nM for the first, < 10 nM for the second.

`Cn1c(=O)n(C2CCC(=O)NC2=O)c2ccc(N3CCN(C(=O)[C@H]4CC[C@H](NC(=O)[C@@H]5NC6(CCCCC6)[C@@]6(C(=O)Nc7cc(Cl)ccc76)[C@H]5c5cccc(Cl)c5F)CC4)C(C(=O)O)C3)cc21` (stereo partly shown) [I-142] and `Cn1c(=O)n(C2CCC(=O)NC2=O)c2ccc(O[C@@H]3C[C@@H](C(=O)O)N(C(=O)[C@H]4CC[C@H](NC(=O)[C@@H]5NC6(CCCCC6)[C@@]6(C(=O)Nc7cc(Cl)ccc76)[C@H]5c5cccc(Cl)c5F)CC4)C3)cc21` (stereo partly shown) [I-143] fall in the same range of DC50: 10 to 100 nM for the first, 10 to 100 nM for the second.

`Cn1c(=O)n(C2CCC(=O)NC2=O)c2ccc(C3CCN(CCC(=O)N4CCC(NC(=O)[C@@H]5NC6(CCCCC6)[C@@]6(C(=O)Nc7cc(Cl)ccc76)[C@H]5c5cccc(Cl)c5F)CC4)CC3)cc21` (stereo partly shown) [I-146] and `Cn1c(=O)n(C2CCC(=O)NC2=O)c2cccc(C3CCN(CCN4CCC(NC(=O)[C@@H]5NC6(CCCCC6)[C@@]6(C(=O)Nc7cc(Cl)ccc76)[C@H]5c5cccc(Cl)c5F)CC4)CC3)c21` (stereo partly shown) [I-152] cannot be ordered by DC50: < 10 nM for the first, < 10 nM for the second.

`Cn1c(=O)n(C2CCC(=O)NC2=O)c2ccc(CN3CCN(CCCN4CCC(NC(=O)[C@@H]5NC6(CCCCC6)[C@@]6(C(=O)Nc7cc(Cl)ccc76)[C@H]5c5cccc(Cl)c5F)CC4)CC3)cc21` (stereo partly shown) [I-147] and `Cn1c(=O)n(C2CCC(=O)NC2=O)c2ccc(CN3CCN(CCN4CCC(NC(=O)[C@@H]5NC6(CCCCC6)[C@@]6(C(=O)Nc7cc(Cl)ccc76)[C@H]5c5cccc(Cl)c5F)CC4)CC3)cc21` (stereo partly shown) [I-167] fall in the same range of DC50: 10 to 100 nM for the first, 10 to 100 nM for the second.

`Cc1ncsc1-c1ccc(CNC(=O)[C@@H]2C[C@@H](O)CN2C(=O)[C@@H](NC(=O)CCCCC2CCN(C(=O)[C@H]3CC[C@H](NC(=O)[C@@H]4NC5(CCCCC5)[C@@]5(C(=O)Nc6cc(Cl)ccc65)[C@H]4c4cccc(Cl)c4F)CC3)CC2)C(C)(C)C)cc1` [I-148] and `Cc1ncsc1-c1ccc(CNC(=O)[C@@H]2C[C@@H](O)CN2C(=O)[C@@H](NC(=O)C2(F)CC2)C(C)(C)C)c(OCCCCCCCCNC(=O)[C@H]2CC[C@H](NC(=O)[C@@H]3NC4(CCCCC4)[C@@]4(C(=O)Nc5cc(Cl)ccc54)[C@H]3c3cccc(Cl)c3F)CC2)c1` [I-149] cannot be ordered by DC50: > 1000 nM for the first, > 1000 nM for the second.

`Cn1c(=O)n(C2CCC(=O)NC2=O)c2ccc(CCN3CCN(CCN4CCC(NC(=O)[C@@H]5NC6(CCCCC6)[C@@]6(C(=O)Nc7cc(Cl)ccc76)[C@H]5c5cccc(Cl)c5F)CC4)CC3)cc21` (stereo partly shown) [I-151] and `Cn1c(=O)n(C2CCC(=O)NC2=O)c2ccc(-c3ccc(CCN4CCC(NC(=O)[C@@H]5NC6(CCCCC6)[C@@]6(C(=O)Nc7cc(Cl)ccc76)[C@H]5c5cccc(Cl)c5F)CC4)cc3)cc21` (stereo partly shown) [I-154] cannot be ordered by DC50: < 10 nM for the first, < 10 nM for the second.

First: O=C1CCN(c2ccc(CCCCN3CCN(C(=O)[C@H]4CC[C@H](NC(=O)[C@@H]5NC6(CCCCC6)[C@@]6(C(=O)Nc7cc(Cl)ccc76)[C@H]5c5cccc(Cl)c5F)CC4)CC3)cc2)C(=O)N1 [I-156]
Second: O=C1CCN(c2cnc3cc(C4CCN(C(=O)CN5CCC(NC(=O)[C@@H]6NC7(CCCCC7)[C@@]7(C(=O)Nc8cc(Cl)ccc87)[C@H]6c6cccc(Cl)c6F)CC5)CC4)ccn23)C(=O)N1 [I-164]
The DC50 of the first is higher: > 1000 nM for the first, 100 to 1000 nM for the second.

First: Cn1c(=O)n(C2CCC(=O)NC2=O)c2ccc(C3CCN(C(=O)CN4CCC(NC(=O)[C@@H]5NC6(CCC(C)(C)CC6)[C@@]6(C(=O)Nc7cc(Cl)ccc76)[C@H]5c5ccnc(Cl)c5F)CC4)CC3)cc21 (stereo partly shown) [I-160]
Second: Cn1c(=O)n(C2CCC(=O)NC2=O)c2ccc(C3CCN(C[C@H]4CC[C@H](NC(=O)[C@@H]5NC6(CCCCC6)[C@@]6(C(=O)Nc7cc(Cl)ccc76)[C@H]5c5cccc(Cl)c5F)CC4)C(C(=O)O)C3)cc21 (stereo partly shown) [I-168]
The DC50 of the first is lower: < 10 nM for the first, 10 to 100 nM for the second.

First: O=C1CCN(c2cnc3cc(N4CCN(CCN5CCC(NC(=O)[C@@H]6NC7(CCCCC7)[C@@]7(C(=O)Nc8cc(Cl)ccc87)[C@H]6c6cccc(Cl)c6F)CC5)CC4)ccn23)C(=O)N1 [I-169]
Second: Cn1c(=O)n(C2CCC(=O)NC2=O)c2ccc(C3(O)CCN(C[C@H]4CC[C@H](NC(=O)[C@@H]5NC6(CCCCC6)[C@@]6(C(=O)Nc7cc(Cl)ccc76)[C@H]5c5cccc(Cl)c5F)CC4)CC3)cc21 (stereo partly shown) [I-194]
The DC50 of the first is higher: 10 to 100 nM for the first, < 10 nM for the second.

`Cn1c(=O)n(C2CCC(=O)NC2=O)c2ccc(C3CCN(Cc4ccc(NC(=O)[C@@H]5NC6(CCCCC6)[C@@]6(C(=O)Nc7cc(Cl)ccc76)[C@H]5c5cccc(Cl)c5F)cc4C(=O)O)CC3)cc21` (stereo partly shown) [I-171] and `Cn1c(=O)n(C2CCC(=O)NC2=O)c2ccc(CN3CCN(C[C@H]4CC[C@H](NC(=O)[C@@H]5NC6(CCCCC6)[C@@]6(C(=O)Nc7cc(Cl)ccc76)[C@H]5c5cccc(Cl)c5F)CC4)C(C(=O)O)C3)cc21` (stereo partly shown) [I-196] fall in the same range of DC50: 10 to 100 nM for the first, 10 to 100 nM for the second.

First: Cn1c(=O)n(C2CCC(=O)NC2=O)c2ccc(CCN3CCN(C[C@H]4CC[C@H](NC(=O)[C@@H]5NC6(CCCCC6)[C@@]6(C(=O)Nc7cc(Cl)ccc76)[C@H]5c5cccc(Cl)c5F)CC4)C(C(=O)O)C3)cc21 (stereo partly shown) [I-197]
Second: Cn1c(=O)n(C2CCC(=O)NC2=O)c2ccc(CCCO[C@@H]3C[C@@H](C(=O)O)N(C[C@H]4CC[C@H](NC(=O)[C@@H]5NC6(CCCCC6)[C@@]6(C(=O)Nc7cc(Cl)ccc76)[C@H]5c5cccc(Cl)c5F)CC4)C3)cc21 (stereo partly shown) [I-198]
The DC50 of the first is lower: < 10 nM for the first, 100 to 1000 nM for the second.

`Cn1c(=O)n(C2CCC(=O)NC2=O)c2ccc(CCCO[C@@H]3C[C@H](C(=O)O)N(C[C@H]4CC[C@H](NC(=O)[C@@H]5NC6(CCCCC6)[C@@]6(C(=O)Nc7cc(Cl)ccc76)[C@H]5c5cccc(Cl)c5F)CC4)C3)cc21` (stereo partly shown) [I-199] was tested, and the DC50 was 10 to 100 nM.
